pIC50: −log10 of the molar value.

The first data set addresses T1, cytochrome P450 enzyme 1A2 (CYP1A2) (Homo sapiens, UniProt P05177).
T1 sequence (P05177 2-516): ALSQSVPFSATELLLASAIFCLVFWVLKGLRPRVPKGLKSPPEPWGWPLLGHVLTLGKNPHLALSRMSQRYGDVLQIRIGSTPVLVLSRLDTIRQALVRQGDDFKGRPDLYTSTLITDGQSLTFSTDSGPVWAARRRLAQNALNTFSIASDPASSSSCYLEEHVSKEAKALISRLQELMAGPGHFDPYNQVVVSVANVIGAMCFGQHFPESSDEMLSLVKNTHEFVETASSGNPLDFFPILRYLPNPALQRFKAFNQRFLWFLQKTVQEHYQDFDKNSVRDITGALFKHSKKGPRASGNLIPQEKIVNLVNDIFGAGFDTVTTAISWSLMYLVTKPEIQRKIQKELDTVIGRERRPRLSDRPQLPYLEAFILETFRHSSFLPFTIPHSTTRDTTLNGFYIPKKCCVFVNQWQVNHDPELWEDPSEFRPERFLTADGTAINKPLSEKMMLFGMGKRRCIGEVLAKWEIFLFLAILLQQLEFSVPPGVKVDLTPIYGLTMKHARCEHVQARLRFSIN
In words: enzyme inhibition assay, method reported earlier. The format is biochemical.
Conditions: not given
For the molecule `CCC#Cc1ccc2ccc3cccc4ccc1c2c34` [1EEP, 1-butynylpyrene], the pIC50 is 6.37.

For the molecule `CC#Cc1ccc2c(ccc3ccccc32)c1` [2MEPHEN, 2-(1-propynyl)phenanthrene], the pIC50 was 6.22.

As for `C#CCOc1ccc(-c2ccccc2)cc1` [4BIPHPE, 4-biphenylpropargyl ether], the pIC50 is 5.81.

Turning to `C#CCOc1ccc2c(C)cc(=O)oc2c1` [4M7CPE, 4-methyl-7-coumarinpropargyl ether], the pIC50 is 5.70.

`C#CCOc1ccc2c(C(F)(F)F)cc(=O)oc2c1` [4TFM7CPE, 4-(trifluoromethyl)-7-coumarinpropargyl ether] gave a pIC50 of 6.15.

In turn, `C#CCOc1ccc(-c2cc(=O)c3ccccc3o2)cc1` [4′FPE, 4′-flavonepropargyl ether] had a pIC50 of 5.90.

For the molecule `C#CCOc1ccc(-c2cc(=O)c3ccc4ccccc4c3o2)cc1` [4′αNFPE, α-naphthoflavone-4′-propargyl ether], the pIC50 was 6.59.

The molecule `C#CCOc1cccc2oc(-c3ccccc3)cc(=O)c12` [5FPE, 5-flavonepropargyl ether] showed a pIC50 of 6.42.

As for `C#CCOc1ccc2oc(-c3ccccc3)cc(=O)c2c1` [6FPE, 6-flavonepropargyl ether], the pIC50 is 6.03.

The molecule `C#CCOc1ccc2c(c1)OC(c1ccccc1)CC2=O` (stereo not drawn) [7FLAVANONEPE, 7FlavanonePE] showed a pIC50 of 6.01.

Turning to `C#CCOc1ccc2c(=O)cc(-c3ccccc3)oc2c1` [7FPE, 7-flavonepropargyl ether], the pIC50 is 6.41.

The same data set, now with this note: read-out: EI.
Take `C#CCOCc1ccc(-c2ccccc2)cc1` [4BIPHMPE, 4-biphenyl methyl propargyl ether]: the pIC50 was 5.74.

The record behind these values is publication PMC3371641 (SAR and QSAR in Environmental Research, 2011).
